{"source": "ChEMBL document CHEMBL1159277", "about": "“Sesquiterpene/quinol from a New Zealand liverwort, Riccardia crassa” (J Nat Prod, 1995)", "key": {"P388": {"tested_on": "P388", "test": "Cytotoxicity against mouse P388 cells", "format": "functional, cell-based"}, "Candida albicans": {"tested_on": "Candida albicans", "test": "Antifungal activity against Candida albicans at 60 ug/disk", "format": "functional, organism-based"}, "[1]": {"tested_on": "Trichophyton mentagrophytes", "test": "Antifungal activity against Trichophyton mentagrophytes at 60 ug/disk", "format": "functional, organism-based"}}, "note": "Active and inactive are the calls of the source. The rule behind the calls is not given here.", "data": [{"smiles": "CC(C)=C/C=C/[C@@]1(C)CCC[C@]2(C)Oc3ccc(O)cc3C[C@@H]12", "note": "[RICCARDIPHENOL C]", "values": [{"measurement": "IC50", "setting": "P388", "result": "> 25", "unit": "µg/mL"}, {"measurement": "Activity", "setting": "Candida albicans", "result": "inactive"}, {"measurement": "Activity", "setting": "[1]", "result": "inactive"}]}]}
